Measured values from publication PMC3165067 (Journal of medicinal chemistry, 2011).

Tests used:
[1] = molecular target: T1, Antithrombin inhibition of factor Xa (Homo sapiens, UniProt P01008); experiment: Kinetics of antithrombin inhibition of factor Xa in presence of activators; type: biochemical; settings: for kACT (second-order rate constant of fXa inhibition by AT–activator complex): pH 6.0, 25 mM NaCl, 25 °C, error ±1 S.E.
[2] = molecular target: T1, Antithrombin inhibition of factor Xa; settings: ref [32], cited from earlier work

T1 sequence (P01008 33-464): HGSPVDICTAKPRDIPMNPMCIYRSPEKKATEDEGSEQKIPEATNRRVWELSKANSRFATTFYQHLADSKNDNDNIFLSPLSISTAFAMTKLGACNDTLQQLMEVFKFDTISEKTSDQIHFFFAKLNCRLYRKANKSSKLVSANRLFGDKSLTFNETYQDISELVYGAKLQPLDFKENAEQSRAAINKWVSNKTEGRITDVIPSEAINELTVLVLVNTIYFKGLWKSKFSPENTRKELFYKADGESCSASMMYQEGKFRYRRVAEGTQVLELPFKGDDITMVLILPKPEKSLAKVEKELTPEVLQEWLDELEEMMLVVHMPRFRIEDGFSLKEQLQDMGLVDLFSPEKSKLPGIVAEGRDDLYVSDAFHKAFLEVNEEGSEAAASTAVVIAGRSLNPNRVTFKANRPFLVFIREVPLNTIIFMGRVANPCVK

SMILES | kACT (second-order rate constant of fXa inhibition by AT–activator complex) [1] | further results
O=C([O-])C1Cc2cc(OS(=O)(=O)[O-])c(OS(=O)(=O)[O-])cc2CN1C(=O)CCc1cc(OS(=O)(=O)[O-])ccc1OS(=O)(=O)[O-].[Na+].[Na+].[Na+].[Na+].[Na+] (centres unmarked) [19b, Sodium 2-(3-(2,5-di-O-sulfonato-phenyl)propanoyl)-6,7-di-O-sulfonato-1,2,3,4-tetrahydroisoquinoline-3-carboxylate tetrasodium] | 8051 ± 751 M⁻¹ s⁻¹ | 
O=C([O-])C1Cc2cc(OS(=O)(=O)[O-])c(OS(=O)(=O)[O-])cc2CN1C(=O)Cc1cc(OS(=O)(=O)[O-])ccc1OS(=O)(=O)[O-].[Na+].[Na+].[Na+].[Na+].[Na+] (centres unmarked) [19a, Sodium 2-(2-(2,5-di-O-sulfonato-phenyl)acetyl)-6,7-di-O-sulfonato-1,2,3,4-tetrahydroisoquinoline-3-carboxylate tetrasodium] | 19740 ± 1290 M⁻¹ s⁻¹ | 
O=C([O-])C1Cc2cc(OS(=O)(=O)[O-])c(OS(=O)(=O)[O-])cc2CN1C(=O)CCCc1cc(OS(=O)(=O)[O-])ccc1OS(=O)(=O)[O-].[Na+].[Na+].[Na+].[Na+].[Na+] (centres unmarked) [19c, Sodium 2-(4-(2,5-di-O-sulfonato-phenyl)butanoyl)-6,7-di-O-sulfonato-1,2,3,4-tetrahydroisoquinoline-3-carboxylate tetrasodium] | 9640 ± 748 M⁻¹ s⁻¹ | 
O=C([O-])C1Cc2c(OS(=O)(=O)[O-])ccc(OS(=O)(=O)[O-])c2CN1C(=O)Cc1cc(OS(=O)(=O)[O-])ccc1OS(=O)(=O)[O-].[Na+].[Na+].[Na+].[Na+].[Na+] (centres unmarked) [20a, Sodium 2-(2-(2,5-di-O-sulfonato-phenyl)acetyl)-5,8-di-O-sulfonato-1,2,3,4-tetrahydroisoquinoline-3-carboxylate tetrasodium] | 32630 ± 1644 M⁻¹ s⁻¹ | 
O=C(CCCc1cc(OS(=O)(=O)[O-])ccc1OS(=O)(=O)[O-])N1CCc2c(ccc(OS(=O)(=O)[O-])c2OS(=O)(=O)[O-])C1.[Na+].[Na+].[Na+].[Na+] [compound 8, 1-(5,6-di-O-sulfonato-3,4-dihydroisoquinolin-2(1H)-yl)-4-(2,5-di-O-sulfonato-phenyl)butan-1-one tetrasodium] | 3337 ± 265 M⁻¹ s⁻¹ | 
O=C([O-])C1Cc2c(OS(=O)(=O)[O-])ccc(OS(=O)(=O)[O-])c2CN1C(=O)CCCc1cc(OS(=O)(=O)[O-])ccc1OS(=O)(=O)[O-].[Na+].[Na+].[Na+].[Na+].[Na+] (centres unmarked) [20c, Sodium 2-(4-(2,5-di-O-sulfonato-phenyl)butanoyl)-5,8-di-O-sulfonato-1,2,3,4-tetrahydro isoquinoline-3-carboxylate tetrasodium] | 46330 ± 2830 M⁻¹ s⁻¹ | AT activation, fold less than that achieved with DEFGH ([1]; 79-fold versus 300-fold for DEFGH): 3.8 fold
O=S(=O)([O-])Oc1cc2c(c(OS(=O)(=O)[O-])c1)C[C@@H](OS(=O)(=O)[O-])[C@@H](c1ccc(OS(=O)(=O)[O-])c(OS(=O)(=O)[O-])c1)O2.[Na+].[Na+].[Na+].[Na+].[Na+] [ECS] |  | kUNCAT ([2]; 20 mM sodium phosphate buffer, pH 6.0, 0.1 mM EDTA, 0.1% PEG8000): ~120 M⁻¹ s⁻¹; kACT ([2]; pH 6.0, no added NaCl): 909 ± 40 M⁻¹ s⁻¹
O=C(Cc1cc(OS(=O)(=O)[O-])ccc1OS(=O)(=O)[O-])N1CCc2cc(OS(=O)(=O)[O-])c(OS(=O)(=O)[O-])cc2C1.[Na+].[Na+].[Na+].[Na+] [compound 7, 1-(6,7-di-O-sulfonato-3,4-dihydroisoquinolin-2(1H)-yl)-2-(2,5-di-O-sulfonato-phenyl) ethanone tetrasodium] | 4582 ± 597 M⁻¹ s⁻¹ | 
O=C([O-])C1Cc2c(OS(=O)(=O)[O-])ccc(OS(=O)(=O)[O-])c2CN1C(=O)CCc1cc(OS(=O)(=O)[O-])ccc1OS(=O)(=O)[O-].[Na+].[Na+].[Na+].[Na+].[Na+] (centres unmarked) [20b, Sodium 2-(3-(2,5-di-O-sulfonato-phenyl)propanoyl)-5,8-di-O-sulfonato-1,2,3,4-tetrahydroisoquinoline-3-carboxylate tetrasodium] | 11800 ± 789 M⁻¹ s⁻¹ | 
